Measured values published in ChEMBL document CHEMBL1139709, “6-Hydroxy- and 6-methoxy-beta-carbolines as acetyl- and butyrylcholinesterase inhibitors” (Bioorg Med Chem Lett, 2006).

Assays:
[1] = target: Acetylcholinesterase (Homo sapiens, UniProt P22303); test: Inhibition of AChE
[2] = target: Cholinesterase (Homo sapiens, UniProt P06276); test: Inhibition of BChE
Chain of Cholinesterase (P06276 whole entry): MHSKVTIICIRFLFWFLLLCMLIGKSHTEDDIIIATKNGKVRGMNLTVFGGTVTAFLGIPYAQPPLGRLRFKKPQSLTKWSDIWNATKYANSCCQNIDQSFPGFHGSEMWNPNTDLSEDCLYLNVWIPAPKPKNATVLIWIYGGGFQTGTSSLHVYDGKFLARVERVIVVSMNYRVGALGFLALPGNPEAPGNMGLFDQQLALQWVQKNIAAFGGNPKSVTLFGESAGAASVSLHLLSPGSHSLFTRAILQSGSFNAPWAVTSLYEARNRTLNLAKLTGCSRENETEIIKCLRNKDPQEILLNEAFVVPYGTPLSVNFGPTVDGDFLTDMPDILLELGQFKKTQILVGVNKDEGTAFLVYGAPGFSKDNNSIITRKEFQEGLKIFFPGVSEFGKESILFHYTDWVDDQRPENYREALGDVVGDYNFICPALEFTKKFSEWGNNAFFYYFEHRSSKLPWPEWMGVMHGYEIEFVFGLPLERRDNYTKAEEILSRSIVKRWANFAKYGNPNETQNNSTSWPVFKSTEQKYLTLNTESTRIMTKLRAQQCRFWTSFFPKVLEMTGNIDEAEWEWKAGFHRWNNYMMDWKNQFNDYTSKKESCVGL

Chain of Acetylcholinesterase (P22303 whole entry): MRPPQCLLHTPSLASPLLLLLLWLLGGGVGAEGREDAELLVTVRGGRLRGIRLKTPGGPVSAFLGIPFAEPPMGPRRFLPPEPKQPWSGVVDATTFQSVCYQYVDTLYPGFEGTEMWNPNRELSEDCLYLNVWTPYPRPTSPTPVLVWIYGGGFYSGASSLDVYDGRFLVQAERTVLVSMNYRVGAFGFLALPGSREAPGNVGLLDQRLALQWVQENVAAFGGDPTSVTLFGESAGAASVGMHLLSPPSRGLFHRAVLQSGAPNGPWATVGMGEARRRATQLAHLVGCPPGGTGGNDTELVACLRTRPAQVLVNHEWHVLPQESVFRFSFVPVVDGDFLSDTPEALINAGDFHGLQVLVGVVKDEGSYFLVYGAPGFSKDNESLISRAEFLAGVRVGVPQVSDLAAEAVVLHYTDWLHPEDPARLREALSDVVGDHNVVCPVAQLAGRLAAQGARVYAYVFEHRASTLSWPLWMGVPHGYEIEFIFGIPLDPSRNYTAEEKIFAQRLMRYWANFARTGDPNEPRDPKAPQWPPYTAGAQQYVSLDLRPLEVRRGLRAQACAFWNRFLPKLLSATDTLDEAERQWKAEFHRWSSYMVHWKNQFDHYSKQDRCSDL

Row | SMILES | IC50 ([1]; read-out: IC50) | IC50 ([2]; read-out: IC50) | IC50 ([1]; read-out: Log IC50 (converted)) | IC50 ([2]; read-out: Log IC50 (converted))
1 | Cn1c2ccc(O)cc2c2ccncc21 | > 10 µM | > 10 µM | – | –
2 | COc1ccc2c(c1)c1ccncc1n2C | > 10 µM | > 10 µM | – | –
3 | Cc1c2c(cc[n+]1C)c1cc(O)ccc1n2C | 1.9 µM | 2.7 µM | – | –
4 | Cc1c2[nH]c3ccc(O)cc3c2cc[n+]1C | 1 µM | 1.6 µM | – | –
5 | COc1ccc2[nH]c3cnccc3c2c1 | > 10 µM | > 10 µM | – | –
6 | COc1ccc2[nH]c3c(C)nccc3c2c1 | > 10 µM | > 10 µM | – | –
7 | COc1ccc2c(c1)c1ccnc(C)c1n2C | 11.8 µM | 17.4 µM | – | –
8 | COc1ccc2c(c1)c1cc[n+](C)c(C)c1n2C | > 10 µM | > 10 µM | – | –
9 | COc1ccc2c(c1)c1cc[n+](C)cc1n2C | 1.3 µM | 20.9 µM | 1.4 µM | –
10 | COc1ccc2[nH]c3c(c2c1)CCNC3C (stereo not drawn) [ADRENOGLOMERULOTROPIN] | > 10 µM | > 10 µM | – | –
11 | Cc1nccc2c3cc(O)ccc3n(C)c12 | > 10 µM | > 10 µM | – | –
12 | COc1ccc2[nH]c3c(C)[n+](C)ccc3c2c1 | 0.8 µM | 1.2 µM | – | 1.1 µM
13 | COc1ccc2[nH]c3c(c2c1)CCNC3 | > 10 µM | > 10 µM | – | –
14 | Cc1nccc2c1[nH]c1ccc(O)cc12 | > 10 µM | > 10 µM | – | –
15 | Cn1c2ccc(O)cc2c2cc[n+](C)cc21 | 1.8 µM | 32.2 µM | – | –
16 | COc1ccc2[nH]c3c[n+](C)ccc3c2c1 | 2.2 µM | 17.5 µM | – | –
17 | C[n+]1ccc2c(c1)[nH]c1ccc(O)cc12 | 4.2 µM | 8.7 µM | – | –
18 | Oc1ccc2[nH]c3cnccc3c2c1 | > 10 µM | > 10 µM | – | –
